Test results as given in PMC7234998, “Quantification of Colistin in Plasma by Liquid Chromatography-Tandem Mass Spectrometry: Application to a Pharmacokinetic Study” (Scientific Reports, 2020).
Positions of bridges follow the written chain, without caps; N, C: chain ends. Non-standard residues stand in square brackets, D forms with d. Residues, ends and D or L forms follow the SMILES beside them. *: point of attachment. X1 = CC[C@H](C)CCCCC(=O)*; Dab = NCC[C@H](N)C(=O)O

Legend:
[1] = in vivo, cited from earlier work
Protocol: However, colistin sulphate has been reported to be well absorbed after an oral administration in infants. […] The standards and quality control samples concentrations were selected based on the therapeutic range of colistin. The expected colistin serum levels according to the antimicrobial reference laboratory assay service are 5–15 mg/L and 2–4 mg/L for the peak and tough concentrations, respectively. […] Choosing the animal species to perform the pharmacokinetic study was based on the similarity of colistin pharmacokinetic profile between animal species and humans. […] The species that has the closest pharmacokinetic profile to humans are rats[43]–[45].

[2] = Benchtop stability of colistin in rat plasma samples at room temperature; conditions: 25 °C for 6 hours, n = 4; for Found concentration in benchtop stability study: LC-MS/MS, mean ± S.D., SD
Protocol: (§1) Colistin sulfate was prepared by dissolving 5.5 mg of the powder in 5 ml water to make a stock solution of 1 mg/ml of colistin. PMB sulfate solution of 1 mg/ml was also prepared by dissolving 5.8 mg of PMB sulfate powder in 5 ml water. Both solutions were stored at −70 °C. Calibration standards and quality controls were prepared by spiking different amounts of colistin sulfate stock solution in plasma. Aliquots of colistin sulfate were further diluted to provide standard concentrations of 0.5, 1, 2, 5, 10, 15, and 20 μg/mL (equivalent to: 78, 156, 312, 780, 1560, 2340 and 3120 ng/ml of colistin A and 353, 706, 1412, 3350, 7060, 10590 and 14120 ng/ml of colistin B) whereas, the concentrations of 1.5, 3.5, 7.5 and 17.5 μg/mL (which contained 234, 546, 1170 and 2730 ng/ml of colistin A and 1059, 2471, 5295 and 12355 ng/ml of colistin B) were considered as quality controls. The calibration standards and quality controls were aliquoted (150 μL) into 0.5 ml Eppendorf tubes and stored at −70 °C pending analysis.
(§2) To 100 μl rat plasma sample, 5 μl of 500 μg/ml IS was added and followed by addition of 400 μl of 50:50 (v/v) methanol-TCA (10%). The samples were vortex-mixed for 1 min, rota-mixed for 10 min at 40 rpm and then centrifuged at 12,000 rpm for 10 min. Following centrifugation, 400 µl of the supernatant was collected and re-extracted with solid phase extraction (SPE) using SPE (Oasis HLB 1 cc, 30 mg) cartridges. First, the cartridges were conditioned with 500 μl of methanol then 500 μl of water. After that, 400 μl of the supernatant was transferred and then washed with 500 μl of water. The tubes were changed and then the samples were eluted with 150 μl of methanol: water: formic acid (80:19:1%, v/v/v) solution. The elution step was repeated twice, and then 250 μl of the solution was transferred to the low volume inserts and 20 μl of this solution was injected into the LC-MS system.
(§3) Various types of stability tests including freeze-thaw stability and long-term stability were assessed. The freeze-thaw stability test was performed by removing the four QC samples out of the storage temperature (−70 °C) and keeping them at room temperature (25 °C) until thawing and then aliquots of the samples were analyzed. After that, the samples were again returned back for freezing in the same storage conditions for 12 to 24 h. The freeze-thaw cycles were repeated five times and 4 replicates of the analytes were assayed. In addition, a long-term stability test was performed to ensure that the stability of the samples for a time that exceeds the interval between the first sample collection and the last sample analysis. Four aliquots of low, medium and high concentrations (QC) were kept for 20 days in the same temperature used to store samples regularly at the lab (−70 °C) then analyzed and compared to the nominal concentration of freshly prepared QC samples. Moreover, the stability in the autosampler (4 °C) was assessed by keeping the processed samples under this condition and assayed periodically at different times for up to 24 hours. In addition, benchtop stability test was performed by keeping the samples at room temperature (25 °C) for six hours and analyzing them during this time. The mean value results of stability tests were calculated and compared to the nominal concentrations.

[3] = rats, cited from earlier work
Excerpt: Following the validation of the present analytical method, the method was applied to estimate the pharmacokinetic profile of colistin in experimental rats. Choosing the animal species to perform the pharmacokinetic study was based on the similarity of colistin pharmacokinetic profile between animal species and humans. […] The species that has the closest pharmacokinetic profile to humans are rats[43]–[45]. […] This is because of a distribution phase that occurs before the decline in the colistin concentration. This finding is in agreement with previous reports[43],[44],[49]. In the present study, we observed that colistin concentration declined rapidly over 180–240 min which is consistent with earlier findings[45],[49]. […] In the present study, the Vd of colistin was 2.45 ± 1.30 L/kg in ...

[4] = Long-term stability of colistin in rat plasma QC samples at −70 °C; conditions: 20 days; for Found concentration after long-term storage: LC-MS/MS, mean ± S.D., n = 5, SD; for Bias% from nominal concentration after long-term storage: n = 5
Protocol: as §1, §2, §3

[5] = Pharmacokinetic study of colistin in rats after IV colistin sulfate, plasma LC-MS/MS, non-compartmental analysis; conditions: male, Sprague Dawley, rat, 15 mg/kg
Protocol: as §2
Male Sprague Dawley® (MSD) rats (21 weeks ± 3 days of age) with a body weight of 450–550 g [supplied by the Animal Resource Center (ARC), Health Sciences Center (HSC), Kuwait University] were used to estimate the pharmacokinetic profile of colistin. The animals (n = 8) were housed in 12 h/12 h light/dark cycle. […] All the animals were subjected to left jugular vein cannulation, IV drug administration, and subsequent blood sampling. All surgical procedures were carried out under strict aseptic conditions. In addition, all surgical instruments and materials were autoclaved, all solutions were sterile and the surgical procedure was performed with the aid of surgical microscope (Leica wild M690). Animal body temperatures were maintained around 37.6 °C (rectal) by placing the animals on an electronic heating pad throughout the surgical procedure as well as the post-surgical recovery period. About 350 µl of rat blood sample was collected from each animal. From this sample, 50 µl of blood sample was transferred to a capillary tube, sealed with the sealant clay at one end and centrifuged to calculate the Packed Cell Volume (PCV); i.e., Hematocrit. The remaining rat blood sample (300 µl) was centrifuged at 9000 X g for 10 min and aliquots of 100 µl of plasma sample was collected and stored at −70 °C pending analysis.
Colistin was quantified in the biological samples by the present LC-MS/MS method and then the pharmacokinetic parameters (t1/2, CL, Vd, AUC) were estimated by non-compartmental method employing Kinetica® software, version 5.1 (Thermo Fisher Scientific, Waltham, USA).

[6] = Freeze-thaw stability of colistin in rat plasma QC samples; conditions: −70 °C to 25 °C after 24 hours, five cycles, n = 4; for Found concentration after freeze-thaw: LC-MS/MS, mean ± S.D., SD
Protocol: as §1, §2, §3

[7] = Autosampler stability of processed colistin rat plasma samples at 4 °C; conditions: 4 °C for 24 hours, n = 4; for Found concentration in autosampler stability study: LC-MS/MS, mean ± S.D., SD
Protocol: as §1, §2, §3

[8] = rat plasma QC 1.5 μg/mL colistin (nominal 234 ng/ml colistin A, 1059 ng/ml colistin B)
[9] = rat plasma QC 3.5 μg/mL colistin (nominal 546 ng/ml colistin A, 2471 ng/ml colistin B)
[10] = rat plasma QC 7.5 μg/mL colistin (nominal 1170 ng/ml colistin A, 5295 ng/ml colistin B)
[11] = rat plasma QC 17.5 μg/mL colistin (nominal 2730 ng/ml colistin A, 12355 ng/ml colistin B)
[12] = processed rat plasma QC 1.5 μg/mL colistin (nominal 234 ng/ml colistin A, 1059 ng/ml colistin B)
[13] = processed rat plasma QC 3.5 μg/mL colistin (nominal 546 ng/ml colistin A, 2471 ng/ml colistin B)
[14] = processed rat plasma QC 7.5 μg/mL colistin (nominal 1170 ng/ml colistin A, 5295 ng/ml colistin B)
[15] = processed rat plasma QC 17.5 μg/mL colistin (nominal 2730 ng/ml colistin A, 12355 ng/ml colistin B)

colistimethate sodium [CMS]
Vd at steady state ([1]; human): 0.34 ± 0.10 L/kg | t1/2 ([1]; human): 124 ± 52 min | absorption after intramuscular injection [1]: rapidly absorbed | absorption through burns, inflamed skin or mucosal membranes [1]: not absorbed | absorption through the GIT [1]: poorly absorbed

CC[C@H](C)CCCCC(=O)N[C@@H](CCN)C(=O)N[C@H](C(=O)N[C@@H](CCN)C(=O)N[C@H]1CCNC(=O)[C@H]([C@@H](C)O)NC(=O)[C@H](CCN)NC(=O)[C@H](CCN)NC(=O)[C@H](CC(C)C)NC(=O)[C@@H](CC(C)C)NC(=O)[C@H](CCN)NC1=O)[C@@H](C)O [Colistin A, colistin A] (X1-[Dab]T[Dab][Dab][Dab][dL]L[Dab][Dab]T; lactam 4-C)
Found concentration in benchtop stability study [2, 8]: 120.275 ± 50.32 ng/mL | Bias% from nominal concentration in benchtop stability study [2, 8]: −48.6% | Found concentration in benchtop stability study [2, 9]: 592.47 ± 488.56 ng/mL | Bias% from nominal concentration in benchtop stability study [2, 9]: 8.51% | Found concentration in benchtop stability study [2, 10]: 1047.6 ± 202.94 ng/mL | Bias% from nominal concentration in benchtop stability study [2, 10]: −10.46% | Found concentration in benchtop stability study [2, 11]: 5045 ± 3076.10 ng/mL | Bias% from nominal concentration in benchtop stability study [2, 11]: 84.8% | CL of the individual components ([3]; Sivanesan and co-workers, ref 45 (sentence ends with 41)): 2.75 ± 0.54 mL/min/kg | t1/2 of the major components [3]: 82.0 ± 30.9 min | Found concentration after long-term storage [4, 8]: 237.24 ± 5.64 ng/mL | Bias% from nominal concentration after long-term storage [4, 8]: 1.39% | Found concentration after long-term storage [4, 9]: 520.76 ± 19.46 ng/mL | Bias% from nominal concentration after long-term storage [4, 9]: −4.62% | Found concentration after long-term storage [4, 10]: 1134.44 ± 26.11 ng/mL | Bias% from nominal concentration after long-term storage [4, 10]: −3.04% | Found concentration after long-term storage [4, 11]: 2719 ± 50.20 ng/mL | Bias% from nominal concentration after long-term storage [4, 11]: −0.40% | level at 0.5 h [5]: 4110 ng/mL | Found concentration after freeze-thaw [6, 8]: 265.4 ± 35.10 ng/mL | Bias% from nominal concentration after freeze-thaw [6, 8]: 13.42% | Found concentration after freeze-thaw [6, 9]: 615.27 ± 30.29 ng/mL | Bias% from nominal concentration after freeze-thaw [6, 9]: 12.69% | Found concentration after freeze-thaw [6, 10]: 1208.93 ± 77.51 ng/mL | Bias% from nominal concentration after freeze-thaw [6, 10]: 3.33% | Found concentration after freeze-thaw [6, 11]: 2551.83 ± 177.97 ng/mL | Bias% from nominal concentration after freeze-thaw [6, 11]: −6.53% | Found concentration in autosampler stability study [7, 12]: 231.18 ± 6.22 ng/mL | Bias% from nominal concentration in autosampler stability study [7, 12]: −1.21% | Found concentration in autosampler stability study [7, 13]: 516.95 ± 53.28 ng/mL | Bias% from nominal concentration in autosampler stability study [7, 13]: −5.32% | Found concentration in autosampler stability study [7, 14]: 1034.9 ± 38.64 ng/mL | Bias% from nominal concentration in autosampler stability study [7, 14]: −11.55% | Found concentration in autosampler stability study [7, 15]: 2917.93 ± 341.07 ng/mL | Bias% from nominal concentration in autosampler stability study [7, 15]: 6.88%

colistin sulphate
absorption after oral administration in infants ([1]; po): well absorbed | absorption from the gastrointestinal tract (GIT) ([1]; po): poorly absorbed | maximum serum concentration [1]: 0.13 mg/L | time of maximum serum concentration [1]: 1.5 h
